# Assay results: patent US7910694B2, “Homing peptides to receptors of heart vasculature” (Cornell Research Foundation, Inc., priority 2002, dated 2011)
# “Also recorded” adds a separate entry of the source.
# Experiments:
# [1] = tested on: receptors in the heart vasculature; assay: Binding of homing peptides to receptors in heart vasculature versus other organs; set-up: species or system mammal; conditions: for binding to BDNF receptor(s) in the vasculature of older hearts: usually trkB, more commonly truncated trkB; for binding to receptors on other organs (than heart, or heart and brain): organ selectivity
# [2] = tested on: cardiac microvascular endothelial cells (CMECs); assay: PDGF-B induction (RT-PCR) after TNFα treatment of cultured CMECs; format: cell-based, F344 rats; conditions: 4-month old rat CMECs, TNFα 30 ng/ml, 3 hr
# Text: FIG. 4. Aging-associated alterations in cardiac microvascular TNFα receptor pathways. (A) Representative immunostaining for TNF receptor 1 and 2 in the subepicardium and subendocardium of 3- and 18-month old murine hearts. (B) TNF receptor 1 and 2 densities in the subendocardium of 3- and 18-month old murine hearts (n=3, each). (C) RT-PCR for PDGF-B induction after TNFα treatment of 4- and 24-month old rat CMECs.
# The functional significance of the changes in TNF receptor in the aging cardiac microvasculature was examined in vitro. Cardiac microvascular endothelial cells (CMECS) of 4 and 24-month old F344 rats were isolated and cultured. Briefly, the hearts were removed and minced in endothelial cell medium (DMEM containing 20% FBS, 1% endothelial cell growth factor, 1% endothelial cell growth supplement, 1% BME, 10^−4% heparin and 1% penicillin [10,000 I.U./ml]/streptomycin [10,000 μg/ml]), and digested with medium containing 0.2% collagenase and 0.005% Dnase, and 5% FBS for 45 minutes with subsequent endothelial cells isolation by PECAM-mediated magnetic particle collection (Dynabeads). The resultant CMECs (Dil-LDL uptake>95%) were cultured for 2 passages and seeded into 12-well culture dish (10^5 cells/well) and grown to confluence. Medium was changed to serum free-DMEM for 1 hr and then to medium containing 2% FBS+TNFα (30 ng/ml) for 3 hr.
# PDGF-B = assay: Intramyocardial injection of TNFα: PDGF-B immunostaining in hearts; format: in vivo, F344 rats; conditions: 100 ng intramyocardial, 24 h
# Procedure: (§1) FIG. 5. Aging-associated alterations in TNFα cardioprotection. (A) Representative immunostaining for PDGF-B in rat hearts injected with TNFα or PBS vehicle 24 h prior to sacrifice. (B) Quantification of PDGF-B density in the injected hearts (n=3, each group). (C) Representative cardiac histology after coronary occlusion: Mason's trichrome staining for myocardial necrosis (14 day post-coronary occlusion) in 4- and 24-month old rat hears treated with PBS (4- and 24-month old, n=4 and 10, respectively) and TNFα (4-month old, n=4); and (D) tunnel staining for apoptosis (DAB) with hematoxylin counter stain (2 day post-coronary occlusion) in 24-month old hearts treated with TNFα (n=10; 80% mortality vs. PBS 0%; p<0.05). (E) Quantification of myocardial necrosis in rat hearts 14 day post-coronary occlusion.
# (§2) To examine the age-dependent effects of TNFα PDGF-B expression and protection from myocardial necrosis, sets of 4- and 24-month old F344 rats received intramyocardial injections of growth factor.
# myocardial infarction = assay: Intramyocardial TNFα followed by coronary occlusion: myocardial necrosis, apoptosis, mortality; format: in vivo, F344 rats
# Procedure: as §1, §2
substance,measurement,setting,value
ARRGQAV,binding to BDNF receptor(s) in the vasculature of older hearts,[1],bind
same,"binding to receptors on other organs (than heart, or heart and brain)",[1],do not bind significantly
GRRFIRV,binding to BDNF receptor(s) in the vasculature of older hearts,[1],bind
same,"binding to receptors on other organs (than heart, or heart and brain)",[1],do not bind significantly
QAQGQLV,"binding to receptors on other organs (than heart, or heart and brain)",[1],does not bind significantly
same,binding capacity to TNF receptor(s) in vasculature of young versus older hearts,[1]; young vs older hearts,more binding capacity
"TNFα: tumor necrosis factor α, growth factor injected intramyocardially or added to CMECs (NPQAEGQLQV)",PDGF-B expression in CMECs from young hearts,[2],induced
same,PDGF-B in young hearts in vivo,PDGF-B; 4-month old rats,specifically induced increase
same,PDGF-B in aging hearts in vivo,PDGF-B; 24-month old rats,minimal effect
same,extent of myocardial infarction in young hearts,"myocardial infarction; 4-month old rats, 14 day post-coronary occlusion",markedly reduced
same,apoptosis in older hearts,"myocardial infarction; 24-month old rats, anterior left ventricular wall, 2 day post-coronary occlusion",extensive apoptosis; also recorded: induced apoptosis
same,mortality in older rats,"myocardial infarction; 24-month old rats, within 72 h of coronary occlusion",80%
